Measurements published in patent US10988456B2, “O-aminoheteroaryl alkynyl-containing compound, preparation method therefor, and use thereof” (SHANGHAI INSTITUTE OF MATERIA MEDICA, CHINESE ACADEMY OF …, priority 2017, dated 2021).
“Also recorded” adds a separate entry of the source. Blank lines part the entries; values can stand above or below the molecule they belong to.

Legend:
RET = RET (Homo sapiens, UniProt P07949); assay: Inhibition of receptor tyrosine kinase activity at molecular level (ELISA, Poly(Glu,Tyr)4:1 substrate phosphorylation); type: biochemical; details: 10 nM compound; average of two independent experiments
Experimental: (§1) Enzyme reaction substrate Poly(Glu, Tyr)4:1 was diluted with potassium-free PBS (10 mM sodium phosphate buffer, 150 mM NaCl, pH 7.2-7.4) to 20 μg/mL. […] The reaction was conducted under 37° C. for 12-16 hours. After the liquid was removed from the wells, the plate was washed three times with 200 μL/well of T-PBS (PBS containing 0.1% Tween-20), each for 5 minutes. The enzyme plate was dried in 37° C. dryer for 1-2 hours.
(§2) 50 μL ATP solution diluted with buffer (50 mM HEPES pH 7.4, 50 mM MgCl2, 0.5 mM MnCl2, 0.2 mM Na3VO4, 1 mM DTT) to a final concentration of 5 μM was added into each well. The compound was diluted with DMSO to a suitable concentration (1 μL/well) or the well contained the corresponding concentration of DMSO (negative control well) Then various kinase recombinant proteins diluted with 49 μL of reaction buffer was added to initiate the reaction. Each experiment required duplicate enzyme-free control well. The reaction was carried out for 1 hour on a 37° C. Shaker (100 rpm). The plate was washed three times with T-PBS. A dilution of the primary antibody PY99 was added (100 μL/well), and the reaction was conducted in a shaker at 37° C. for 0.5 hr. The plate was washed three times with T-PBS. A dilution of the horseradish peroxidase-labeled goat anti-mouse IgG secondary antibody was added (100 μL/well), and the reaction was conducted in a shaker at 37° C. for 0.5 hour. Plate was washed with T-PBS for three times. 2 mg/mL OPD coloration solution (diluted with 0.1 M citric acid-sodium citrate buffer containing 0.03% H2O2 (pH=5.4)) was added (100 μL/well), reacted for 1-10 minutes at 25° C. in dark. The reaction was quenched with 2M H2SO4 (50 μL/well), and read at 490 nm using a tunable microplate reader SPECTRA MAX 190.
(§3) The inhibition ratio of the sample was determined by the following formula: […]
(§4) The IC50 values were obtained via four-parameter regression analysis using the software supplied with the microplate reader.

FGFR1 = FGFR1 (Homo sapiens, UniProt P11362); assay: as above; type: biochemical; details: for 10 nM inhibition ratio FGFR1: 10 nM compound, average of two independent experiments
Experimental: as §1, §2, §3, §4

KDR = KDR (Homo sapiens, UniProt P35968); assay: as above; type: biochemical; details: 10 nM compound; average of two independent experiments
Experimental: as §1, §2, §3, §4

[1] = tested on: human gastric cancer SNU-16 xenografts; assay: Growth of subcutaneous xenografts of human gastric cancer SNU-16 in nude mice (comparative compounds study); details: for Weight (g, mean ± SD): SNU-16 tumor-bearing mice
Experimental: The tumor tissue in the vigorous growth period was cut into 1.5 mm^3, and inoculated subcutaneously in the right axilla of nude mice under aseptic conditions. The diameter of the xenograft in nude mice was measured with a vernier caliper. The animals were randomly divided into groups when the average tumor volume was grown to about 190 mm^3. […] The diameter of the xenograft was measured twice a week during the entire experiment, and the body weight of the mice was weighed. The tumor volume (TV) was calculated as: TV=½×a×b^2, where a and b represented length and width, respectively. The relative tumor volume (RTV) was calculated based on the measured results, and the formula was: RTV=Vt/V0, wherein V0 represented the tumor volume obtained when the mice was divided and administered (i.e., d0), and Vt represented the tumor volume at each measurement. The anti-tumor activity evaluation index was the relative tumor proliferation rate T/C (%), and the calculation formula was as follows: T/C (%)=(TRTV/CRTV)×100%, wherein TRTV was TRV in treatment group; and CRTV was RTV in negative control group.

KDR, sequence (P35968 20-1356): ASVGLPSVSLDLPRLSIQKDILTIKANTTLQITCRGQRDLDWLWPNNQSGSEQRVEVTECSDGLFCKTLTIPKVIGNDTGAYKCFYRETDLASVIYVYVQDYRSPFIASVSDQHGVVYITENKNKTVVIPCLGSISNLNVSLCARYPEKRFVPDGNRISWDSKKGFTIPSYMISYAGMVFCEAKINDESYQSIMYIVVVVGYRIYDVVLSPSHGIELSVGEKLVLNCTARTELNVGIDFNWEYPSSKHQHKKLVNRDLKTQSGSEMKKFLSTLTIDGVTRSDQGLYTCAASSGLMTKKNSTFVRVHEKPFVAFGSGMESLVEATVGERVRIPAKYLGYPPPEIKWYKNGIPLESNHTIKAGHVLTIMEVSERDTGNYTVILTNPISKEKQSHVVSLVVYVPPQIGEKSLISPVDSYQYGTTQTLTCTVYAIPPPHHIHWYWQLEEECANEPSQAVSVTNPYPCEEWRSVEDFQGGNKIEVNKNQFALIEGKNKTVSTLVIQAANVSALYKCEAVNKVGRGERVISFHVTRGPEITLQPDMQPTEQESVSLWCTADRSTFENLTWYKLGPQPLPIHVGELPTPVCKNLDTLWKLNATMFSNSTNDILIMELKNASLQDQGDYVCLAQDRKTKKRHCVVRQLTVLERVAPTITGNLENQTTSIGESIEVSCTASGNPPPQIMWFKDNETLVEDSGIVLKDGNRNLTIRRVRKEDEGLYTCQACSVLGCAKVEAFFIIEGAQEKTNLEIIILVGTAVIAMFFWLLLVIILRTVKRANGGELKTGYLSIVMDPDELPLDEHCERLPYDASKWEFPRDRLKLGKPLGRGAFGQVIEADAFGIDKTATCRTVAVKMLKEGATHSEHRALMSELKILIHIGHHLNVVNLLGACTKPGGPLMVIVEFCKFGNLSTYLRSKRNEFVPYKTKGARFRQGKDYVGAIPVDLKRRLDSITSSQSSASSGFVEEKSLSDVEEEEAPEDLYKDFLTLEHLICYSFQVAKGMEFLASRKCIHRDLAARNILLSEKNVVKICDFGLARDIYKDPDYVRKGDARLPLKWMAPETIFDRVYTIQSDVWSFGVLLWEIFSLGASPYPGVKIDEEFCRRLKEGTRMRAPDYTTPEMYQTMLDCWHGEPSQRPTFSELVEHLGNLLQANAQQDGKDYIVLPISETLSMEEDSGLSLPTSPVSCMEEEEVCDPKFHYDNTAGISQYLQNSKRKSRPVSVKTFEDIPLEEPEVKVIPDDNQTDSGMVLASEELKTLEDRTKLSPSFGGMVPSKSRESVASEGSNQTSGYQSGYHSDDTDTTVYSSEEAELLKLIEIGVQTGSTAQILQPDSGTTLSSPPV
RET, sequence (P07949 29-1114): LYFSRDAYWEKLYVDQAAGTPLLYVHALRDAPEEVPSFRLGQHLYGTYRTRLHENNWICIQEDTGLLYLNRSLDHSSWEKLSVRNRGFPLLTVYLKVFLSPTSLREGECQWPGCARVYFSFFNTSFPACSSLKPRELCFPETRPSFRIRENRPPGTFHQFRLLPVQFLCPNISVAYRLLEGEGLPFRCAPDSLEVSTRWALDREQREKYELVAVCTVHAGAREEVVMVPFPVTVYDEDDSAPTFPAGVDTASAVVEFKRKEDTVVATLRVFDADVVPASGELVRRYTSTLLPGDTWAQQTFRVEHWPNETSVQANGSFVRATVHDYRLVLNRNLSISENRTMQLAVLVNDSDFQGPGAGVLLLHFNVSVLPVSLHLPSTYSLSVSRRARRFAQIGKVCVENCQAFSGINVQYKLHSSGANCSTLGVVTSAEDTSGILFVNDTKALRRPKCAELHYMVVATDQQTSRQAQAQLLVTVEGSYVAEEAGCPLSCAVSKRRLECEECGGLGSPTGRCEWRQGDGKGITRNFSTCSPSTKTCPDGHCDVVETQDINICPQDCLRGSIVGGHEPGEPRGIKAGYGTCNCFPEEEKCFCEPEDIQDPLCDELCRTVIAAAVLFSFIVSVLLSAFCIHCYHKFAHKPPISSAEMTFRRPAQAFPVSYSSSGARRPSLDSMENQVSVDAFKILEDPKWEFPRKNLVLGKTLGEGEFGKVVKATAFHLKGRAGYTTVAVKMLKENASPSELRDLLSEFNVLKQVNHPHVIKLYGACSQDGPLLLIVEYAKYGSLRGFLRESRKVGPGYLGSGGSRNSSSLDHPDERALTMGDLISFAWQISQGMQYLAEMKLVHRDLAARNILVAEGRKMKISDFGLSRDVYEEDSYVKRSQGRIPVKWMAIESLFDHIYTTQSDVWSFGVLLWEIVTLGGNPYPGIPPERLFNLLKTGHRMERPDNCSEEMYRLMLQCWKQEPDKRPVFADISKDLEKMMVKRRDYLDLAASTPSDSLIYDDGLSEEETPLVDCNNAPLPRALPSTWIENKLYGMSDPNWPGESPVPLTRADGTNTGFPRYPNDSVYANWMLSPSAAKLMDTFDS
FGFR1, sequence (P11362 22-822): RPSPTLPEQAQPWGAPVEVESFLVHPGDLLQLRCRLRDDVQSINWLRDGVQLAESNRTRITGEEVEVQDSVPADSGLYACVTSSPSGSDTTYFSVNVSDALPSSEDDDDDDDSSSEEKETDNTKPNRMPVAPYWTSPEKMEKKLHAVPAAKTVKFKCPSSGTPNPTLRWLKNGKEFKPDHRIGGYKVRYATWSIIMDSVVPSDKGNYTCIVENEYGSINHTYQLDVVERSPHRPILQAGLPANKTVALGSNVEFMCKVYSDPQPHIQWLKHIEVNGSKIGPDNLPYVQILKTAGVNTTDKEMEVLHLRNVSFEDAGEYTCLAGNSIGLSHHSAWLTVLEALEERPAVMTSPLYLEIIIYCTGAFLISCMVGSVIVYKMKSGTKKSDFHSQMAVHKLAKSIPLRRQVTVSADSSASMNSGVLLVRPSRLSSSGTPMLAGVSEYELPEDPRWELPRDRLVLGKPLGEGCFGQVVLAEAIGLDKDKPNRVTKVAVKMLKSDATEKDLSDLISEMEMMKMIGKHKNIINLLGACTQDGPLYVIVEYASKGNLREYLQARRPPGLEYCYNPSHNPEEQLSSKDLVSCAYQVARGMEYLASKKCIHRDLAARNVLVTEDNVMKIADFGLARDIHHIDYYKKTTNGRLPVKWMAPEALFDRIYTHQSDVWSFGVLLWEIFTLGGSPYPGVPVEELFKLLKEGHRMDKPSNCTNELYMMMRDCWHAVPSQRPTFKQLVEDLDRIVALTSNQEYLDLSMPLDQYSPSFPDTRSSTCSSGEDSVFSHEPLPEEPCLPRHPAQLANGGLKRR

10 nM inhibition ratio RET (RET): 73.3
10 nM inhibition ratio FGFR1 (FGFR1): 68.0
10 nM inhibition ratio KDR (KDR): 25.0
Structure (SMILES): CN1CCN(Cc2ccc(NC(=O)c3ccc(Cl)c(C#Cc4cc(Cl)cnc4N)c3)cc2C(F)(F)F)CC1 [Example 17]

10 nM inhibition ratio RET (RET): 69.5
10 nM inhibition ratio FGFR1 (FGFR1): 77.1
10 nM inhibition ratio KDR (KDR): 33.2
Structure (SMILES): CN1CCN(Cc2ccc(NC(=O)c3ccc(Cl)c(C#Cc4c(F)ccnc4N)c3)cc2C(F)(F)F)CC1 [Example 49]

10 nM inhibition ratio RET (RET): 71.8
10 nM inhibition ratio FGFR1 (FGFR1): 70.5
10 nM inhibition ratio KDR (KDR): 25.2
Structure (SMILES): CN1CCN(Cc2ccc(NC(=O)c3ccc(Cl)c(C#Cc4cc(F)cnc4N)c3)cc2C(F)(F)F)CC1 [Example 16]

10 nM inhibition ratio RET (RET): 61.2
10 nM inhibition ratio FGFR1 (FGFR1): 59.9
10 nM inhibition ratio KDR (KDR): 15.4
Structure (SMILES): COc1ccc(C#Cc2cccnc2N)cc1C(=O)Nc1ccc(CN2CCN(C)CC2)c(C(F)(F)F)c1 [Example 15]

10 nM inhibition ratio RET (RET): 49.9
10 nM inhibition ratio FGFR1 (FGFR1): 54.5
10 nM inhibition ratio KDR (KDR): 33.2
Structure (SMILES): CN1CCN(Cc2ccc(NC(=O)c3ccc(Cl)c(C#Cc4cc(OC5COC5)cnc4N)c3)cc2C(F)(F)F)CC1 [Example 25]

10 nM inhibition ratio RET (RET): 77.8
10 nM inhibition ratio FGFR1 (FGFR1): 55.2
10 nM inhibition ratio KDR (KDR): 5.8
Structure (SMILES): CN1CCN(Cc2ccc(NC(=O)c3ccc(Cl)c(C#Cc4cc(CO)cnc4N)c3)cc2C(F)(F)F)CC1 [Example 30]

10 nM inhibition ratio RET (RET): 66.3
10 nM inhibition ratio FGFR1 (FGFR1): 48.1
10 nM inhibition ratio KDR (KDR): 33.2
Structure (SMILES): CC(=O)Nc1cnc(N)c(C#Cc2cccc(C(=O)Nc3ccc(CN4CCN(C)CC4)c(C(F)(F)F)c3)c2)c1 [Example 37]

10 nM inhibition ratio RET (RET): 73.2
10 nM inhibition ratio FGFR1 (FGFR1): 75.1
10 nM inhibition ratio KDR (KDR): 24.0
Structure (SMILES): Cc1cc(C#Cc2cccnc2N)cc(C(=O)Nc2ccc(CN3CCN(C)CC3)c(C(F)(F)F)c2)c1 [Example 12]

10 nM inhibition ratio RET (RET): 21.7
inhibition ratio FGFR1 (100 nM) (FGFR1; 100 nM compound): 22.4
10 nM inhibition ratio KDR (KDR): 18.2
Structure (SMILES): COc1ncccc1C#Cc1cc(C(=O)Nc2ccc(CN3CCN(C)CC3)c(C(F)(F)F)c2)ccc1Cl [HuFGFR148, reference compound]

Structure (SMILES): CN1CCN(Cc2ccc(NC(=O)c3ccc(Cl)c(C#Cc4cncc(N5CCOCC5)c4)c3)cc2C(F)(F)F)CC1 [HuFGFR1-113]
animal deaths ([1]; SNU-16, 20 mg/kg group): one mouse died on day 20
Relative tumor volume RTV (mean ± SD) ([1]; SNU-16, 20 mg/kg orally once a day, d0): 1.00 ± 0.00
Relative tumor volume RTV (mean ± SD) ([1]; SNU-16, 20 mg/kg orally once a day, d3): 1.12 ± 0.03
Relative tumor volume RTV (mean ± SD) ([1]; SNU-16, 20 mg/kg orally once a day, d7): 0.64 ± 0.23
Relative tumor volume RTV (mean ± SD) ([1]; SNU-16, 20 mg/kg orally once a day, d10): 0.54 ± 0.22
Relative tumor volume RTV (mean ± SD) ([1]; SNU-16, 20 mg/kg orally once a day, d14): 0.92 ± 0.17
Relative tumor volume RTV (mean ± SD) ([1]; SNU-16, 20 mg/kg orally once a day, d17): 1.18 ± 0.42
Relative tumor volume RTV (mean ± SD) ([1]; SNU-16, 20 mg/kg orally once a day, d21): 1.35 ± 0.15
relative tumor proliferation rate T/C ([1]; SNU-16, 20 mg/kg orally once a day, day 21): 23.30%
animal deaths ([1]; SNU-16, 100 mg/kg group): One mouse died on the third day; also recorded: Two mice died on the fifth day
toxicity / condition of the mice (in words) ([1]; SNU-16, 100 mg/kg group): significant toxicity
Relative tumor volume RTV (mean ± SD) ([1]; SNU-16, 100 mg/kg orally once a day (administration interrupted), d0): 1.00 ± 0.00
Relative tumor volume RTV (mean ± SD) ([1]; SNU-16, 100 mg/kg orally once a day (administration interrupted), d3): 1.32 ± 0.40
Relative tumor volume RTV (mean ± SD) ([1]; SNU-16, 100 mg/kg orally once a day (administration interrupted), d7): 0.58 ± 0.02
Relative tumor volume RTV (mean ± SD) ([1]; SNU-16, 100 mg/kg orally once a day (administration interrupted), d10): 0.60 ± 0.02
Relative tumor volume RTV (mean ± SD) ([1]; SNU-16, 100 mg/kg orally once a day (administration interrupted), d14): 0.58 ± 0.35
Relative tumor volume RTV (mean ± SD) ([1]; SNU-16, 100 mg/kg orally once a day (administration interrupted), d17): 1.16 ± 0.86
Relative tumor volume RTV (mean ± SD) ([1]; SNU-16, 100 mg/kg orally once a day (administration interrupted), d21): 1.52 ± /
weight of the tumor-bearing mice (in words) ([1]; SNU-16, HuFGFR1-113 at 20 mg/kg, HuFGFR1-117 dose not stated): decreased significantly
Weight (g, mean ± SD) ([1]; 20 mg/kg orally once a day, d0): 23.2 ± 1.8 g
Weight (g, mean ± SD) ([1]; 20 mg/kg orally once a day, d3): 24.0 ± 1.5 g
Weight (g, mean ± SD) ([1]; 20 mg/kg orally once a day, d7): 22.4 ± 1.8 g
Weight (g, mean ± SD) ([1]; 20 mg/kg orally once a day, d10): 20.2 ± 1.9 g
Weight (g, mean ± SD) ([1]; 20 mg/kg orally once a day, d14): 19.7 ± 2.9 g
Weight (g, mean ± SD) ([1]; 20 mg/kg orally once a day, d17): 20.1 ± 3.7 g
Weight (g, mean ± SD) ([1]; 20 mg/kg orally once a day, d21): 20.3 ± 1.6 g
Weight (g, mean ± SD) ([1]; 100 mg/kg orally once a day (administration interrupted), d0): 23.4 ± 2.7 g
Weight (g, mean ± SD) ([1]; 100 mg/kg orally once a day (administration interrupted), d3): 23.1 ± 2.0 g
Weight (g, mean ± SD) ([1]; 100 mg/kg orally once a day (administration interrupted), d7): 20.7 ± 0.1 g
Weight (g, mean ± SD) ([1]; 100 mg/kg orally once a day (administration interrupted), d10): 22.1 ± 0.4 g
Weight (g, mean ± SD) ([1]; 100 mg/kg orally once a day (administration interrupted), d14): 25.4 ± 1.6 g
Weight (g, mean ± SD) ([1]; 100 mg/kg orally once a day (administration interrupted), d17): 25.5 ± 3.0 g
Weight (g, mean ± SD) ([1]; 100 mg/kg orally once a day (administration interrupted), d21): 21.2 ± / g

10 nM inhibition ratio RET (RET): 68.2
10 nM inhibition ratio FGFR1 (FGFR1): 54.0
10 nM inhibition ratio KDR (KDR): 34.3
Structure (SMILES): CN1CCN(Cc2ccc(NC(=O)c3cc(C#N)cc(C#Cc4cccnc4N)c3)cc2C(F)(F)F)CC1 [Example 11]

10 nM inhibition ratio RET (RET): 56.3
10 nM inhibition ratio FGFR1 (FGFR1): 49.9
10 nM inhibition ratio KDR (KDR): 12.1
Structure (SMILES): CN1CCN(Cc2ccc(NC(=O)c3ccc(Cl)c(C#Cc4cc(N(C)C)cnc4N)c3)cc2C(F)(F)F)CC1 [Example 36]

10 nM inhibition ratio RET (RET): 44.3
10 nM inhibition ratio FGFR1 (FGFR1): 57.9
10 nM inhibition ratio KDR (KDR): 32.1
Structure (SMILES): CNc1cnc(N)c(C#Cc2cc(C(=O)Nc3ccc(CN4CCN(C)CC4)c(C(F)(F)F)c3)ccc2Cl)c1 [Example 35]

10 nM inhibition ratio RET (RET): 92.4
10 nM inhibition ratio FGFR1 (FGFR1): 80.7
10 nM inhibition ratio KDR (KDR): 38.9
Structure (SMILES): CN1CCN(Cc2ccc(NC(=O)c3cc(F)cc(C#Cc4cccnc4N)c3)cc2C(F)(F)F)CC1 [Example 7]

10 nM inhibition ratio RET (RET): 58.2
10 nM inhibition ratio FGFR1 (FGFR1): 65.5
10 nM inhibition ratio KDR (KDR): 20.3
Structure (SMILES): Cc1cnc(N)c(C#Cc2cc(C(=O)Nc3ccc(CN4CCN(C)CC4)c(C(F)(F)F)c3)ccc2Cl)c1 [Example 18]

10 nM inhibition ratio RET (RET): 57.8
10 nM inhibition ratio FGFR1 (FGFR1): 44.3
10 nM inhibition ratio KDR (KDR): 18.0
Structure (SMILES): CN(C)Cc1cnc(N)c(C#Cc2cc(C(=O)Nc3ccc(CN4CCN(C)CC4)c(C(F)(F)F)c3)ccc2Cl)c1 [Example 34]

10 nM inhibition ratio RET (RET): 64.3
10 nM inhibition ratio FGFR1 (FGFR1): 70.2
10 nM inhibition ratio KDR (KDR): 15.1
Structure (SMILES): COc1cc(C#Cc2cccnc2N)cc(C(=O)Nc2ccc(CN3CCN(C)CC3)c(C(F)(F)F)c2)c1 [Example 13]

10 nM inhibition ratio RET (RET): 70.8
10 nM inhibition ratio FGFR1 (FGFR1): 66.3
10 nM inhibition ratio KDR (KDR): 37.2
Structure (SMILES): CN1CCN(Cc2ccc(NC(=O)c3ccc(Cl)c(C#Cc4cc(COC(F)(F)F)cnc4N)c3)cc2C(F)(F)F)CC1 [Example 32]

10 nM inhibition ratio RET (RET): 40.1
10 nM inhibition ratio FGFR1 (FGFR1): 45.1
10 nM inhibition ratio KDR (KDR): 15.2
Structure (SMILES): CN1CCN(Cc2ccc(NC(=O)c3ccc(C#N)c(C#Cc4cccnc4N)c3)cc2C(F)(F)F)CC1 [Example 5]

10 nM inhibition ratio RET (RET): 55.2
10 nM inhibition ratio FGFR1 (FGFR1): 44.9
10 nM inhibition ratio KDR (KDR): 14.3
Structure (SMILES): CN(C)CCOc1cnc(N)c(C#Cc2cc(C(=O)Nc3ccc(CN4CCN(C)CC4)c(C(F)(F)F)c3)ccc2Cl)c1 [Example 29]

10 nM inhibition ratio RET (RET): 63.4
10 nM inhibition ratio FGFR1 (FGFR1): 36
10 nM inhibition ratio KDR (KDR): 34.5
Structure (SMILES): CN1CCN(Cc2ccc(NC(=O)c3cc(C#Cc4cccnc4N)cc(C(F)(F)F)c3)cc2C(F)(F)F)CC1 [Example 10]

10 nM inhibition ratio RET (RET): 69.1
10 nM inhibition ratio FGFR1 (FGFR1): 52.4
10 nM inhibition ratio KDR (KDR): 34.7
Structure (SMILES): Cc1ccc(C(=O)Nc2ccc(CN3CCN(C)CC3)c(C(F)(F)F)c2)cc1C#Cc1cccnc1N [Example 3]

10 nM inhibition ratio RET (RET): 16.4
10 nM inhibition ratio FGFR1 (FGFR1): 33.2
10 nM inhibition ratio KDR (KDR): 39.5
Structure (SMILES): CNc1cncc(C#Cc2cc(C(=O)Nc3ccc(CN4CCN(C)CC4)c(C(F)(F)F)c3)ccc2C)c1 [Example A34, reference compound]
